Assay results: PMC9503459, “Antifungal Activity, Structural Stability, and Immunomodulatory Effects on Human Immune Cells of Defensin from the Lentil Lens culinaris” (Membranes, 2022)
“And” between values parts separate entries of the source, which are not always exact repeats. Equal entries are not always repeated. No end group written: not given here.

Assays:
PBMCs = assay: Resazurin-based cytotoxicity assay, PBMCs; assay type: cell-based, human; settings: 50 μM peptide, 24 h
Method: (§1) The cytotoxic properties of Lc-def and melittin as a control were investigated also by resazurin-based cell cytotoxicity assay. PBMCs and THP-1 cells were seeded in 96-well plates at 2 × 10^6 and 1 × 10^6 cells per well, respectively, in RPMI-1640 supplemented with 10% FBS, and kept in CO2-incubator. After 24 h serial two-fold dilutions of compounds in culture medium were then added to final concentrations from 0.2 to 50 μM. After 24 h of incubation with the peptides, resazurin (Sigma) was added at a final concentration of 0.7 mM, and the plates were incubated overnight (16 h). Fluorescent resorufin was registered using 535/595 filter at PlateReader AF2200 (Eppendorf, Hamburg, Germany). Untreated corresponding cells were used as negative controls. The cell viability was calculated as: cell viability (%) = (Fsample/Fcontrol) × 100%. The experiment was carried out twice in triplicate.

[1] = test system: clinical isolate of C. glabrata (252/2); assay: Antifungal microdilution assay, C. glabrata; assay type: cell-based, Candida glabrata; settings: 24 h; for inhibition of the growth: C. glabrata
Method: (§2) The clinical isolates of Candida albicans (v47a3), C. krusei (225/2) and C. glabrata (252/2) were collected from patients with human immunodeficiency virus (HIV) infection and provided by G.N. Gabrichevsky Research Institute for Epidemiology and Microbiology (Moscow, Russia). Strains stocks were kept at −70 ℃ in 10% nonfat milk with 10% glycerol.
(§3) Antifungal susceptibility tests were performed by the microdilution method using 96-well microplates. Yeast cells in stock were inoculated onto modified YPD (yeast extract 5 g/L, peptone 10 g/L, glucose 10 g/L) agar plates, and incubated for 24 h at 37 ℃. After replating, cells were cultured in modified YPD broth at 37 ℃ to optical density 1.0 at 540 nm. Further, yeast cells in modified YPD broth at concentration of 5 × 10^4 cells/mL were mixed with equal volumes of serial two-fold dilutions of the peptide in water which started at the highest peptide concentration of 200 µM. Final peptide concentrations in the wells were 100, 50, 25, 12.5, 6.25, 3.125, and 1.56 μM. Controls without defensin were also tested. Plates were incubated at 30 ℃ during 24 h. Yeast growth was estimated using inverted microscope as well as by measuring the optical density at 540 nm. Percentage of growth inhibition was defined as: growth inhibition (%) = ((Acontrol − Asample)/Acontrol) × 100%. All of the experiments were performed twice in triplicate. The t-test was performed to study the statistical difference (p-value) between the means of controls and samples with different peptide concentrations. The experiment with lentil Lens culinaris lipid transfer protein Lc-LTP2 was carried out for comparison.

THP-1 cells = assay: Resazurin-based cytotoxicity assay, THP-1; assay type: cell-based, human; settings: 0.2 to 50 μM, 24 h
Method: as §1

[2] = test system: clinical isolate of C. krusei (225/2); assay: Antifungal microdilution assay, C. krusei; assay type: cell-based, Candida krusei; settings: 24 h; for inhibition of the growth: C. krusei
Method: as §2, §3

[3] = test system: proteolytic enzymes of Candida albicans; assay: Influence of defensins on degradation of proteins by C. albicans lysate; assay type: biochemical; settings: SDS-PAGE
Method: For study of Lc-def sensitivity to the clinical isolate of C. albicans, lysates of yeast cells in different concentration and pH were used basically as previously described for rhesus macaque θ-defensin 1 [22]. Cells were inoculated onto modified YPD medium and grown at 37 ℃ for 48 h before reaching the stationary phase of growth. Cells were harvested by centrifugation, washed two times in sterile phosphate buffered saline (PBS), pH 7.2, or sterile 40 mM sodium acetate, pH 4.0, and resuspended in the corresponding buffer to final concentrations of 1 × 10^9 cells/mL or 1 × 10^3 cells/mL. Two freeze-thaw cycles in liquid nitrogen were used for cell disruption, and supernatants were collected following centrifugation. Supernatants (12.5 μL) were mixed with water solutions (37.5 μL) of Lc-def, α-casein, Psd1, or LL-37 in concentration of 0.67 mg/mL and incubated at 37 ℃ for 72 or 24 h in the case of high or low cell concentration, respectively. To study the possible influence of Lc-def and Psd1 on the degradation process, supernatants (12.5 μL) were mixed with both α-casein or LL-37 in concentration of 1 mg/mL (25 μL) and Lc-def or Psd1 in concentration of 2 mg/mL (12.5 μL). As negative controls, α-casein and peptides were mixed with buffers as well as supernatants were mixed with water without the proteins. The samples were mixed with sample buffer without β-mercaptoethanol (BME), heated at 100 ℃ for 2 min, and analyzed by sodium dodecyl sulfate polyacrylamide gel electrophoresis (SDS-PAGE). Some independent experiments were performed in each case.

[4] = C. albicans lysate 10^3 cells/mL, pH 7.2, up to 24 h

In the case of “Lc-def: defensin from lentil Lens culinaris seeds (UniProt:B3F051), recombinant, overexpressed in Escherichia coli (KTCENLSDSFKGPCIPDGNCNKHCKEKEHLLSGRCRDDFRCWCTRNC; disulfide (positions not given here); ends not checked; also: disulfide bonds present, pairing not given here; UniProt B3F051 28-74, looked up)”, the cell viability (PBMCs) is reported as 100%, the IC50 ([1]; C. glabrata clinical isolate, microdilution, modified YPD, 30 °C, OD540, twice in triplicate, read-out: concentration causing 50% growth inhibition) is reported as 25 to 50 µM and the “inhibition of the growth” value ([1]; 50 μM peptide) is reported as ~90%. For the same substance, the “inhibition of the growth” value ([1]; 100 μM peptide) was < 100%, the cytotoxic activity (THP-1 cells) was “did not show any cytotoxic activity” and the IC50 ([2]; C. krusei clinical isolate, microdilution, modified YPD, 30 °C, OD540, twice in triplicate, read-out: concentration causing 50% growth inhibition) was 25 to 50 µM and 25 µM. For the same substance, the “inhibition of the growth” value ([2]; 50 μM peptide) was ~90%, the “inhibition of the growth” value ([2]; 100 μM peptide) was < 100% and the “influence on LL-37 degradation” value [3, 4] was “did not decrease LL-37 degradation”. For the same substance, the “influence on the rate of α-casein degradation” value [3, 4] was “decreased the rate of α-casein degradation” and the “influence on degradation of the major protein of C. albicans” value ([3]; C. albicans lysate 10^9 cells/mL) was “decrease in degradation”.
